Among the test systems are BT-549 breast; CAKI-1 renal; HOP-92 NSCLC; HS 578T breast; IGROV1 ovarian; MCF7 breast; MDA-MB-231 breast; MOLT-4 leukemia; SK-MEL-28 melanoma; SN12C renal.
Holding throughout (experiment): inhibition of tumour cell growth, NCI panel, 48 h

The structures appear in SMILES notation. Where “and” joins values, the source holds several entries; their conditions need not be identical. Equal entries are not always repeated.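 Compound exposure: 48 hours, 5 concentrations, 96-well plates. GI50: concentration for 50% inhibition of growth. TGI: concentration producing complete growth inhibition.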 Bounds are passed on as bounds.

As to `CC(C)(C)c1cc(/C=N/NC(=O)c2ccccc2NC(=O)c2cccs2)c(O)c(C(C)(C)C)c1`, the GI50 is 4650 nM with BT-549 breast; 536 nM in the assay on CAKI-1 renal; 4440 nM with HOP-92 NSCLC; 5130 nM with HS 578T breast; 683 nM in the assay on IGROV1 ovarian; 485 nM with MCF7 breast. Besides, the GI50 with MDA-MB-231 breast is 1110 nM; with MOLT-4 leukemia, 872 nM; in the assay with SK-MEL-28 melanoma it was 3000 nM; with SN12C renal, 1920 nM. In addition, the TGI in the assay with BT-549 breast was over 100000 nM; in the assay on CAKI-1 renal, over 100000 nM; in the assay on HOP-92 NSCLC, 80500 nM; in the assay with HS 578T breast, 42600 nM; with IGROV1 ovarian it was over 100000 nM; with MCF7 breast, over 100000 nM. Moreover, the TGI stood at 19100 nM with MDA-MB-231 breast, 20600 nM in the assay on MOLT-4 leukemia, 46200 nM in the assay with SK-MEL-28 melanoma and 62800 nM in the assay on SN12C renal.

For `COc1cc(/C=C/c2cc(/C=C/c3ccc(O)c(OC)c3)n(C(=O)Nc3ccccc3Cl)n2)ccc1O`, the GI50 with BT-549 breast is 303 nM; with CAKI-1 renal, 222 nM; in the assay with HOP-92 NSCLC, 349 nM; in the assay with HS 578T breast, 114 nM; with IGROV1 ovarian, 485 nM; in the assay on MCF7 breast, 290 nM. For the same compound, the GI50 in the assay with MDA-MB-231 breast was 708 nM; with MOLT-4 leukemia, 269 nM; in the assay with SK-MEL-28 melanoma it was 519 nM; in the assay with SN12C renal it was 366 nM. Besides, the TGI in the assay with BT-549 breast came out at 2750 nM; with CAKI-1 renal, 1210 nM; in the assay with HOP-92 NSCLC it was 2390 nM; in the assay with HS 578T breast it was 890 nM; in the assay on IGROV1 ovarian, 2390 nM; with MCF7 breast it was 1400 nM. The TGI in the assay on MDA-MB-231 breast was found to be 11400 nM; in the assay with MOLT-4 leukemia, 1200 nM; with SK-MEL-28 melanoma it was 4110 nM; in the assay on SN12C renal, 5770 nM.

In the case of `Oc1ccc2c3c1OC1c4[nH]ncc4C[C@H]4[C@@H](C2)N(CC2CC2)CC[C@]314` (stereo not given in full), the TGI in the assay with BT-549 breast, with CAKI-1 renal, in the assay with HOP-92 NSCLC, in the assay with HS 578T breast, in the assay on IGROV1 ovarian and in the assay on MCF7 breast was over 100000 nM in each case. Also, the TGI in the assay on MDA-MB-231 breast, in the assay on MOLT-4 leukemia, with SK-MEL-28 melanoma and with SN12C renal was over 100000 nM throughout.

Consider `CCc1cnn2c(NCc3ccc[n+]([O-])c3)cc(N3CCCC[C@H]3CCO)nc12`, for which the GI50 in the assay on BT-549 breast was < 10 nM and 3.31 nM; in the assay with CAKI-1 renal, 49.1 nM and 9.11 nM; in the assay on HOP-92 NSCLC, < 14.2 nM and 2.99 nM; with HS 578T breast, < 10 nM and 2.36 nM; in the assay on IGROV1 ovarian, < 10 nM and 3.3 nM; in the assay with MCF7 breast, < 10 nM and 2.21 nM. The GI50 in the assay with MDA-MB-231 breast is < 10 nM and 4.2 nM; with MOLT-4 leukemia, < 10 nM and 3.93 nM; in the assay on SK-MEL-28 melanoma, < 10 nM and 4.93 nM; in the assay on SN12C renal it was < 10 nM and 4.06 nM. In addition, the TGI was < 18.3 nM and 30.5 nM in the assay with BT-549 breast; over 63400 nM in the assay with CAKI-1 renal; < 26.9 nM and 14.5 nM with HOP-92 NSCLC; 8.05 nM in the assay on HS 578T breast; over 10000 nM in the assay on IGROV1 ovarian; over 100000 nM with MCF7 breast. The TGI in the assay with MDA-MB-231 breast was over 100000 nM; in the assay on MOLT-4 leukemia it was under 13.6 nM; in the assay on SK-MEL-28 melanoma, 29.7 nM and 71.3 nM; with SN12C renal, over 100000 nM.

Consider `Cn1cc(-c2nc(-c3c[nH]c4ncccc34)cs2)c2ccccc21`, for which the GI50 with BT-549 breast is 23700 nM; with CAKI-1 renal, 25500 nM; with HOP-92 NSCLC, 2720 nM; with HS 578T breast it was over 100000 nM; in the assay on IGROV1 ovarian, 6660 nM; with MCF7 breast, 401 nM. Besides, the GI50 in the assay on MDA-MB-231 breast was 1030 nM; in the assay with MOLT-4 leukemia, 23000 nM; in the assay on SK-MEL-28 melanoma, 48800 nM; with SN12C renal it was over 100000 nM. The TGI in the assay on BT-549 breast is over 100000 nM; with CAKI-1 renal it was over 100000 nM; in the assay with HOP-92 NSCLC, 36200 nM; with HS 578T breast it was over 100000 nM; in the assay on IGROV1 ovarian, over 100000 nM; in the assay on MCF7 breast, 26100 nM. Also, the TGI with MDA-MB-231 breast was 63800 nM; with MOLT-4 leukemia it was over 100000 nM; in the assay on SK-MEL-28 melanoma, over 100000 nM; with SN12C renal, over 100000 nM.

With `O=C1CC(c2ccccc2)Cc2nc3ccc(Br)cc3cc21` (stereo not given), the GI50 with BT-549 breast is 589 nM; in the assay on CAKI-1 renal, 459 nM; in the assay on HOP-92 NSCLC, 450 nM; with HS 578T breast, 408 nM; with IGROV1 ovarian it was 428 nM; in the assay on MCF7 breast, 2750 nM. Further, the GI50 with MDA-MB-231 breast was 650 nM; with MOLT-4 leukemia, 63.9 nM; with SK-MEL-28 melanoma, 1340 nM; in the assay on SN12C renal, 577 nM. Besides, the TGI in the assay on BT-549 breast was 15900 nM; in the assay with CAKI-1 renal it was over 100000 nM; in the assay with HOP-92 NSCLC, 46100 nM; in the assay with HS 578T breast, over 94500 nM; with IGROV1 ovarian it was over 100000 nM; with MCF7 breast, over 100000 nM. Moreover, the TGI was 96300 nM with MDA-MB-231 breast, over 100000 nM in the assay on MOLT-4 leukemia, over 100000 nM in the assay with SK-MEL-28 melanoma and over 100000 nM with SN12C renal.

As to `COC(=O)[C@]12CC[C@@H](C)[C@H](C)[C@@H]1C1=CC[C@@H]3[C@@]4(C)C[C@@H](OC(=O)/C=C/c5ccccc5)[C@H](O)[C@@](C)(CO)[C@@H]4[C@H](O)C[C@@]3(C)[C@]1(C)CC2`, the GI50 in the assay with BT-549 breast was 1760 nM; in the assay on CAKI-1 renal, 3270 nM; in the assay on HOP-92 NSCLC it was 2110 nM; in the assay on HS 578T breast it was 1880 nM; in the assay on IGROV1 ovarian, 3610 nM; with MCF7 breast, 3120 nM. The GI50 in the assay on MDA-MB-231 breast was 1950 nM; in the assay with MOLT-4 leukemia, 2270 nM; in the assay with SK-MEL-28 melanoma, 2690 nM; with SN12C renal, 1830 nM. In addition, the TGI in the assay with BT-549 breast is 3970 nM; in the assay on CAKI-1 renal it was 11900 nM; in the assay on HOP-92 NSCLC it was 6420 nM; in the assay on HS 578T breast, 4710 nM; with IGROV1 ovarian it was 14000 nM; with MCF7 breast it was 11500 nM. Also, the TGI was 4170 nM in the assay on MDA-MB-231 breast, 7310 nM in the assay with MOLT-4 leukemia, 9360 nM in the assay on SK-MEL-28 melanoma and 3600 nM in the assay with SN12C renal.

The values above are taken from PubChem BioAssay (NCI).
